# Measured values taken from patent US7018642B2 (The Procter & Gamble Company, priority 2001, dated 2006).
# System: S. epidermidis strain ATCC 35984
# Assay: Biofilm prevention screen (96-well microplate, crystal violet)
# Format: cell-based
# Settings: Staphylococcus epidermidis, ATCC35984, 32 μM, positive = prevention, negative = enhancement of biofilm formation, quadruplicate, read-out: average percentage reduction of biofilm formed relative to DMSO controls
# Experimental: (§1) Overnight cultures of 3 mL are made of P. aeruginosa strain PAO1 (grown in R2A medium (Handbook of Microbiological Media; CRC Press, 1997, second edition, R. M. Atlas, ed.), modified to omit Mg^2+ but to include 0.3–0.5% fructose (pH 7.0) and 3 μM ferrous ammonium sulfate), P. fluorescens strain ATCC 13525 (grown in R2A modified to omit Mg^2+ but to include 0.3–0.5% sodium pyruvate (pH 7.0)), S. epidermidis strain ATCC 35984 (grown in a ¼ dilution of TSB (Handbook of Microbiological Media; CRC Press, 1997, second edition, R. M. Atlas, ed.) supplemented with 1% fructose (pH 7.0) and 3 μM ferrous ammonium sulfate). To each type of growth medium, HEPES (pH 7.3) is optionally added to a final concentration of 10 mM.
# (§2) To PS, PVC, or PP (preferably PP or PVC) round-bottom, 96-well microplates containing 100 μl per well of the respective growth medium as described above, compounds to be tested (dissolved in DMSO) are added and mixed, to give a final concentration of 250–500 μM. These microplates then also are used to make successive dilutions of the compounds in the same respective growth medium to yield microplates containing final concentrations of, for example, 160 μM and 32 μM of the same set of compounds. Control wells are included in the dilution series that contain only DMSO. From the 3 ml overnight cultures, each of the three dilution plate sets is inoculated with 5 μl per well of a 1:1 dilution in the same liquid growth media of the appropriate culture. The covered plate is then incubated with shaking, at 30° C. (for P. aeruginosa or P. fluorescens) or 37° C. (for S. epidermidis), at 200 rpm, for 16–26 hours, in a humidity controlled environment.
# (§3) Cells present in biofilm attached to the microplate surface are stained with CV either after removal of the liquid from each well, followed by rinsing three times (aspiration and addition) with 150 μl per well phosphate buffered saline solution (PBS) and final addition of 100 μl per well of PBS, or by direct addition of stain to bacterial cultures without rinsing. To 100 μl per well of PBS or of bacterial culture, 25 μl/well of 1% CV solution (in ˜10% ethanol) is added. After incubation at room temperature for 45 minutes, the dye solution is removed from the plates. Residual dye is immediately removed by gentle rinsing with a stream of deionized water by filling and inverting the plates 4–5 times, or by using an automated pipettor. Rinsed plates are air-dried at room temperature for 0.5–2 hours. Bound dye is extracted by the addition of 150 μL per well of 95% ethanol, followed by vigorous mixing for 10–15 seconds and incubation for 45 minutes at room temperature without shaking. Subsequently, either undiluted or diluted (in ethanol) samples of extracted CV are transferred to flat bottom, polystyrene microtiter plates and absorbances at 586 nm were measured in a microplate reader. Readings from wells containing compounds are compared to the average of data from control wells that contain only DMSO. Replicate samples are measured, and results are reported as averages of the replicate well data points.
# (§4) Data are expressed in terms of the average percentage reduction of biofilm formed in the presence of each compound, relative to the DMSO controls, for quadruplicate samples. Assays are run using the three compound concentrations indicated. Positive numbers indicate prevention of biofilm formation by a compound, and negative numbers indicate enhancement of biofilm formation by a compound (percentage coefficients of variation are ≦10%).
row,SMILES,inhibition at 32 µM [%]
1,CCCCNC(=O)[C@@H]1CCCN1C(=O)OC(C)(C)C [Compound 155],-3
2,CCCCCCCCCCCCNC(=O)[C@H]1CCCN1 [Compound 167],40
3,CCCCCCCCNC(=O)[C@@H]1CCCN1 [Compound 31],-7
4,CCCCCCCCCCNC(=O)[C@H]1CCCN1 [Compound 166],13

# Same assay, conditions: Staphylococcus epidermidis, ATCC35984, 160 μM, positive = prevention, negative = enhancement of biofilm formation, quadruplicate, read-out: average percentage reduction of biofilm formed relative to DMSO controls
row,SMILES,inhibition at 160 µM [%]
1,CCCCNC(=O)[C@@H]1CCCN1C(=O)OC(C)(C)C [Compound 155],-1
2,CCCCCCCCCCCCNC(=O)[C@H]1CCCN1 [Compound 167],100
3,CCCCCCCCNC(=O)[C@@H]1CCCN1 [Compound 31],-1
4,CCCCCCCCCCNC(=O)[C@H]1CCCN1 [Compound 166],100

# Same assay, conditions: Staphylococcus epidermidis, ATCC35984, 390 μM, positive = prevention, negative = enhancement of biofilm formation, quadruplicate, read-out: average percentage reduction of biofilm formed relative to DMSO controls
row,SMILES,inhibition at 390 µM [%]
1,CCCCNC(=O)[C@@H]1CCCN1C(=O)OC(C)(C)C [Compound 155],21
2,CCCCCCCCCCCCNC(=O)[C@H]1CCCN1 [Compound 167],99
3,CCCCCCCCNC(=O)[C@@H]1CCCN1 [Compound 31],-27
4,CCCCCCCCCCNC(=O)[C@H]1CCCN1 [Compound 166],101

# System: P. aeruginosa strain PAO1
# Assay: as above
# Format: cell-based
# Settings: Pseudomonas aeruginosa, 32 μM, positive = prevention, negative = enhancement of biofilm formation, quadruplicate, read-out: average percentage reduction of biofilm formed relative to DMSO controls
# Experimental: as §1, §2, §3, §4
row,SMILES,inhibition at 32 µM [%]
1,CCCCNC(=O)[C@@H]1CCCN1C(=O)OC(C)(C)C [Compound 155],-5
2,CCCCCCCCCCCCNC(=O)[C@H]1CCCN1 [Compound 167],4
3,CCCCCCCCNC(=O)[C@@H]1CCCN1 [Compound 31],-37
4,CCCCCCCCCCNC(=O)[C@H]1CCCN1 [Compound 166],10

# Same assay, conditions: Pseudomonas aeruginosa, 160 μM, positive = prevention, negative = enhancement of biofilm formation, quadruplicate, read-out: average percentage reduction of biofilm formed relative to DMSO controls
row,SMILES,inhibition at 160 µM [%]
1,CCCCNC(=O)[C@@H]1CCCN1C(=O)OC(C)(C)C [Compound 155],2
2,CCCCCCCCCCCCNC(=O)[C@H]1CCCN1 [Compound 167],49
3,CCCCCCCCNC(=O)[C@@H]1CCCN1 [Compound 31],-125
4,CCCCCCCCCCNC(=O)[C@H]1CCCN1 [Compound 166],22

# Same assay, conditions: Pseudomonas aeruginosa, 390 μM, positive = prevention, negative = enhancement of biofilm formation, quadruplicate, read-out: average percentage reduction of biofilm formed relative to DMSO controls
row,SMILES,inhibition at 390 µM [%]
1,CCCCNC(=O)[C@@H]1CCCN1C(=O)OC(C)(C)C [Compound 155],6
2,CCCCCCCCCCCCNC(=O)[C@H]1CCCN1 [Compound 167],93
3,CCCCCCCCNC(=O)[C@@H]1CCCN1 [Compound 31],-44
4,CCCCCCCCCCNC(=O)[C@H]1CCCN1 [Compound 166],96

# System: P. fluorescens strain ATCC 13525
# Assay: as above
# Format: cell-based
# Settings: Pseudomonas fluorescens, ATCC13525, 32 μM, positive = prevention, negative = enhancement of biofilm formation, quadruplicate, read-out: average percentage reduction of biofilm formed relative to DMSO controls
# Experimental: as §1, §2, §3, §4
row,SMILES,inhibition at 32 µM [%]
1,CCCCNC(=O)[C@@H]1CCCN1C(=O)OC(C)(C)C [Compound 155],10
2,CCCCCCCCCCCCNC(=O)[C@H]1CCCN1 [Compound 167],38
3,CCCCCCCCNC(=O)[C@@H]1CCCN1 [Compound 31],3
4,CCCCCCCCCCNC(=O)[C@H]1CCCN1 [Compound 166],0

# Same assay, conditions: Pseudomonas fluorescens, ATCC13525, 160 μM, positive = prevention, negative = enhancement of biofilm formation, quadruplicate, read-out: average percentage reduction of biofilm formed relative to DMSO controls
row,SMILES,inhibition at 160 µM [%]
1,CCCCNC(=O)[C@@H]1CCCN1C(=O)OC(C)(C)C [Compound 155],4
2,CCCCCCCCCCCCNC(=O)[C@H]1CCCN1 [Compound 167],95
3,CCCCCCCCNC(=O)[C@@H]1CCCN1 [Compound 31],5
4,CCCCCCCCCCNC(=O)[C@H]1CCCN1 [Compound 166],57

# Same assay, conditions: Pseudomonas fluorescens, ATCC13525, 390 μM, positive = prevention, negative = enhancement of biofilm formation, quadruplicate, read-out: average percentage reduction of biofilm formed relative to DMSO controls
row,SMILES,inhibition at 390 µM [%]
1,CCCCNC(=O)[C@@H]1CCCN1C(=O)OC(C)(C)C [Compound 155],4
2,CCCCCCCCCCCCNC(=O)[C@H]1CCCN1 [Compound 167],92
3,CCCCCCCCNC(=O)[C@@H]1CCCN1 [Compound 31],52
4,CCCCCCCCCCNC(=O)[C@H]1CCCN1 [Compound 166],98

# System: S. epidermidis strain ATCC 35984
# Assay: Improved biofilm dispersion screen (already-formed biofilms, crystal violet)
# Format: cell-based
# Settings: Staphylococcus epidermidis, ATCC35984, no NaOH, positive = dispersion, negative = enhancement of pre-existing biofilm, quadruplicate, read-out: average percentage reduction of biofilm relative to the two control values (dispersion)
# Experimental: (§5) A modification of method disclosed in Reference Example 2, which greatly improves the sensitivity and reproducibility of the dispersion screen is hereby disclosed. […] In the modification described herein, compounds are added in the presence of the fresh liquid growth media, such that the resultant biofilms continue to grow, unless a test compound triggers their dispersion. Overnight cultures are made as above, and 100 μL of the appropriate liquid growth media are dispensed into duplicate 96 well microplates—in this fashion, two identical microplates are set up for each bacterial species to be assayed. Neither compounds nor DMSO are added prior to the inoculation of bacteria, and growth in the duplicate plates for 24 hours is allowed using the conditions specified in Reference Example 1. After growth of biofilm to be tested in the wells, cells present in biofilm attached to one of the duplicate microplates is stained with CV, quantitated as described in Reference Example 1, and the data for the entire plate averaged, resulting in a growth control value, t0. The remaining replicate of each microplate pairs is treated with compounds in DMSO, or DMSO alone for control wells, by first removing the cell suspensions from the wells, then adding fresh 100 μL volumes of the same appropriate liquid growth media, followed by direct addition and mixing of the compound DMSO solutions to give final compound concentrations of 390 μM. Incubation of the compound-containing microplates is then continued for an additional 22–26 hours using the same conditions described in Reference Example 1. Cell suspensions are then removed, 100 μL per well of a 0 mM NaOH (S. epidermidis), 20 mM NaOH (P. fluorescens), or 30 mM NaOH (P. aeruginosa) solution in PBS is added, and incubation at room temperature is allowed for 30 minutes. No addition of NaOH is made to the S. epidermidis suspension since a test assay indicated no amplification by base with S. epidermidis. The microplates are subsequently rinsed three times with 150 μL per well of PBS, followed by final liquid removal, staining with CV and quantitation as described in Reference Example 1. Data for each well that contained compound result in a compound value, R, and data for control wells that contained DMSO only are averaged to generate a second control value, t24. The effect of each compound tested on dispersion of the biofilm compared to the two control values is calculated thus: [formula] […] Data are expressed in terms of the average percentage reduction of biofilm formed in the presence of each compound, relative to the two control values, for quadruplicate samples. Assays are run as described above, using compound concentrations of 390 μM. Positive numbers indicate dispersion (reduction) of pre-existing biofilms by a compound, and negative numbers indicate enhancement (stimulation of growth) of pre-existing biofilms by a compound (percentage coefficients of variation are ≦15%).
row,SMILES,inhibition at 390 µM [%]
1,CCCCNC(=O)[C@@H]1CCCN1C(=O)OC(C)(C)C [Compound 155],-4
2,CCCCCCCCCCCCNC(=O)[C@H]1CCCN1 [Compound 167],78
3,CCCCCCCCNC(=O)[C@@H]1CCCN1 [Compound 31],-11
4,CCCCCCCCCCNC(=O)[C@H]1CCCN1 [Compound 166],70

# System: P. aeruginosa strain PAO1
# Assay: as above
# Format: cell-based
# Settings: Pseudomonas aeruginosa, 30 mM NaOH step, positive = dispersion, negative = enhancement of pre-existing biofilm, quadruplicate, read-out: average percentage reduction of biofilm relative to the two control values (dispersion)
# Experimental: as §5
row,SMILES,inhibition at 390 µM [%]
1,CCCCNC(=O)[C@@H]1CCCN1C(=O)OC(C)(C)C [Compound 155],-12
2,CCCCCCCCCCCCNC(=O)[C@H]1CCCN1 [Compound 167],4
3,CCCCCCCCNC(=O)[C@@H]1CCCN1 [Compound 31],21
4,CCCCCCCCCCNC(=O)[C@H]1CCCN1 [Compound 166],-2

# System: P. fluorescens strain ATCC 13525
# Assay: as above
# Format: cell-based
# Settings: Pseudomonas fluorescens, ATCC13525, 20 mM NaOH step, positive = dispersion, negative = enhancement of pre-existing biofilm, quadruplicate, read-out: average percentage reduction of biofilm relative to the two control values (dispersion)
# Experimental: as §5
row,SMILES,inhibition at 390 µM [%]
1,CCCCNC(=O)[C@@H]1CCCN1C(=O)OC(C)(C)C [Compound 155],3
2,CCCCCCCCCCCCNC(=O)[C@H]1CCCN1 [Compound 167],0
3,CCCCCCCCNC(=O)[C@@H]1CCCN1 [Compound 31],32
4,CCCCCCCCCCNC(=O)[C@H]1CCCN1 [Compound 166],0
